How the values were obtained:
[1] = tested on: MDA-MB 231 cells; assay: Crystal violet proliferation study; format: cell-based
Method: FIG. 11 is a graph showing the results of MDA-MB 231 proliferation studies. MDA-MB 231 cells were used as they express the triple negative cancer phenotype. Compound 3 was selected due to potency in inhibition of both MEK1/2 and MEK5. MDA-MB 231 cells were plated at 10,000 cells per well in a 96 well TC plate in 5% Charcoal-Dextran stripped media and incubated overnight at 37° C. in 5% CO2. The cells were treated with drug or vehicle the following day. Plates were harvested on days 3, 5 and 7 and stained with Crystal Violet. […] The cells were washed, lysed, and the absorbance of Crystal Violet sequestered in living cells was determined at […]. Wells were conducted in duplicate. Experiments were run in triplicate. Cells were normalized to initial cell count.
Proliferation studies were conducted using MDA-MB 231 cells, as they express the triple negative cancer phenotype. […] The cells were washed, lysed, and the absorbance of Crystal Violet sequestered in living cells was determined at […]. […]
Triple-negative breast cancer (TNBC) cells MDA-MB-231 were seeded in 96-well plates at a density of 2,000 cells per well in 5% charcoal-stripped phenol free DMEM, allowed to attach overnight, and subsequently treated with DMSO and MEK inhibitor compounds in duplicate. […] Cells were washed, lysed with 33% acetic acid, and the absorbance was read at 630 nm in a Biotek Synergy plate reader. […]

[2] = tested on: MDA-MB-231 xenograft; assay: Animal xenograft study, tumor volume; format: in vivo, SCID/beige female mice; details: SCID female mice, 1×10^6 MDA-MB231 cells bilaterally, 25 mg/kg on day 0, 30 days
Method: End point tumor volume for SCID female mice injected bilaterally with 1×10^6 MDA-MB231 cells, n=10. Animals were treated on day 0 (cell injection day) with either DMSO or SC-1-151 (25 mg/kg). Tumor size was measured biweekly for 30 days using a digital caliper. Bars represent final average tumor volume±SEM.
Immune-compromised SCID/beige female mice (29-32 days old) were obtained from Charles River Laboratories (Wilmington, Mass.). The animals were allowed a period of adaptation in a sterile and pathogen-free environment with food and water ad libitum. Breast cancer cells MDA-MB-231 were grown in 5% FBS charcoal-stripped DMEM for five days then harvested. Viable cells were mixed with PBS and Matrigel Reduced Factors (BD Biosciences, San Jose, Calif.). Injections (1×10^6 cells/injection) were made bilaterally into the mammary fat pad on day 0 (May 7, 2013). All the procedures in animals were carried out under anesthesia using a mix of isoflurane and oxygen delivered by mask. Animals were treated on day 0 with either DMSO or SC-1-151 (25 mg/kg). Tumor size was measured biweekly for 30 days using a digital caliper. Tumor volume was calculated using the following formula: 4/3πLM^2, where L is the larger radius and M is the smaller radius. On day 31, tumors were excised and blocked in OCT compound. Mice were monitored daily to insure survival after the surgery. […]

[3] = tested on: MDA-MB 231 cells; assay: Morphology (mesenchymal to epithelial phenotype) during proliferation testing; format: cell-based
Method: Proliferation studies were conducted using MDA-MB 231 cells, as they express the triple negative cancer phenotype. Compound 3 was selected due to its potency in inhibition of both MEK1/2 and MEK5. MDA-MB 231 cells were plated at 10,000 cells per well in a 96 well TC plate in 5% Charcoal-Dextran stripped media and incubated overnight at 37° C. in 5% CO2. The cells were treated with drug or vehicle the following day. Plates were harvested on days 3, 5 and 7 and stained with Crystal Violet. […] The cells were washed, lysed, and the absorbance of Crystal Violet sequestered in living cells was determined at […]. Wells were conducted in duplicate. Experiments were run in triplicate. Cells were normalized to initial cell count.
Examination of the MDA-MB 231 cells during the proliferation testing period was conducted. Untreated (DMSO) cells retained an elongated spiky cellular morphology characteristic of the mobile and invasive mesenchymal phenotype. […] The observed phenotypic conversion persisted for 14 days without reversion back to the mesenchymal phenotype, see FIG. 12.

**Q.** Which “reduction in growth relative to untreated (DMSO)” value ([1]; 7 day time point) does the source give for `NC(=O)c1ccc(F)c(F)c1Nc1ccc(I)cc1F` [Compound 3, 3,4-difluoro-2-((2-fluoro-4-iodophenyl)amino)benzamide] here?
**A.** 70%

**Q.** And the overt cell death ([1]; even at saturation concentrations)?
**A.** No overt cell death

**Q.** And the “tumorigenesis in vivo (end point tumor volume)” value [2]?
**A.** decreases tumorigenesis

**Q.** What about the “conversion of mesenchymal to epithelial cellular morphology” value [3] of the same compound?
**A.** more rounded cellular morphology

**Q.** What about the “persistence of phenotypic conversion without reversion to mesenchymal phenotype” value [3] of the same compound?
**A.** 14 days

**Q.** And the “conversion of cell phenotype” value ([3]; 10 μM)?
**A.** marked conversion of nearly all cells back to a more rounded phenotype
